Marks after values point to notes of the source that are not given here.
Test system: male rats
Experiment: 28-day repeated dose study, plasma metabolite profiling (GC-MS, LC-MS), male rats
Format: in vivo, rat
From the text: Drinking water was also offered ad libitum.

Cc1ncc[nH]1 [2-Methylimidazole]
18-Hydroxy-11-deoxycorticosterone, plasma, treatment ratio versus control (day 7): 0.49*
Alanine, plasma, treatment ratio versus control (day 7): 0.76*
Arachidonic acid (C20:cis[5,8,11,14]4), plasma, treatment ratio versus control (day 7): 0.76*
Coenzyme Q9, plasma, treatment ratio versus control (day 7): 0.72*
Creatinine, plasma, treatment ratio versus control (day 7): 1.23*
DAG (C18:1, C18:2), plasma, treatment ratio versus control (day 7): 0.81
Fructose-6-phosphate, plasma, treatment ratio versus control (day 7): 0.76
Galactose, lipid fraction, plasma, treatment ratio versus control (day 7): 0.81*
Glucosamine, plasma, treatment ratio versus control (day 7): 1
Glucose, plasma, treatment ratio versus control (day 7): 0.86*
Glycerol, polar fraction, plasma, treatment ratio versus control (day 7): 0.75*
Heneicosanoic acid (C21:0), plasma, treatment ratio versus control (day 7): 0.92
Lactate, plasma, treatment ratio versus control (day 7): 0.68
Linolenic acid (C18:cis[9,12,15]3), plasma, treatment ratio versus control (day 7): 0.59*
Lysine, plasma, treatment ratio versus control (day 7): 0.81*
Malate, plasma, treatment ratio versus control (day 7): 0.65*
Oleic acid (C18:cis[9]1), plasma, treatment ratio versus control (day 7): 0.85*
Palmitoleic acid (C16:cis[9]1), plasma, treatment ratio versus control (day 7): 0.81
Phenylalanine, plasma, treatment ratio versus control (day 7): 0.96
Phosphate (inorganic and organic phosphates), plasma, treatment ratio versus control (day 7): 0.9*
Pyruvate, plasma, treatment ratio versus control (day 7): 0.84
Spermidine, plasma, treatment ratio versus control (day 7): 0.77*
TAG (C16:0,C16:1), plasma, treatment ratio versus control (day 7): 0.67*
Uracil, plasma, treatment ratio versus control (day 7): 0.67*
myo-Inositol, plasma, treatment ratio versus control (day 7): 0.85*
trans-4-Hydroxyproline, plasma, treatment ratio versus control (day 7): 0.73*
18-Hydroxy-11-deoxycorticosterone, plasma, treatment ratio versus control (day 14): 0.59*
Alanine, plasma, treatment ratio versus control (day 14): 0.84*
Arachidonic acid (C20:cis[5,8,11,14]4), plasma, treatment ratio versus control (day 14): 0.83*
Coenzyme Q9, plasma, treatment ratio versus control (day 14): 0.67*
Creatinine, plasma, treatment ratio versus control (day 14): 1.45*
DAG (C18:1, C18:2), plasma, treatment ratio versus control (day 14): 0.74*
Fructose-6-phosphate, plasma, treatment ratio versus control (day 14): 1.08
Galactose, lipid fraction, plasma, treatment ratio versus control (day 14): 1
Glucosamine, plasma, treatment ratio versus control (day 14): 1.15
Glucose, plasma, treatment ratio versus control (day 14): 0.88*
Glycerol, polar fraction, plasma, treatment ratio versus control (day 14): 0.84*
Heneicosanoic acid (C21:0), plasma, treatment ratio versus control (day 14): 0.87*
Lactate, plasma, treatment ratio versus control (day 14): 0.69*
Linolenic acid (C18:cis[9,12,15]3), plasma, treatment ratio versus control (day 14): 0.57*
Lysine, plasma, treatment ratio versus control (day 14): 0.97
Malate, plasma, treatment ratio versus control (day 14): 0.8*
Oleic acid (C18:cis[9]1), plasma, treatment ratio versus control (day 14): 0.82*
Palmitoleic acid (C16:cis[9]1), plasma, treatment ratio versus control (day 14): 0.77*
Phenylalanine, plasma, treatment ratio versus control (day 14): 0.96*
Phosphate (inorganic and organic phosphates), plasma, treatment ratio versus control (day 14): 0.89*
Pyruvate, plasma, treatment ratio versus control (day 14): 0.69*
Spermidine, plasma, treatment ratio versus control (day 14): 0.69*
TAG (C16:0,C16:1), plasma, treatment ratio versus control (day 14): 0.38*
Uracil, plasma, treatment ratio versus control (day 14): 0.67*
myo-Inositol, plasma, treatment ratio versus control (day 14): 0.97
trans-4-Hydroxyproline, plasma, treatment ratio versus control (day 14): 0.75*
18-Hydroxy-11-deoxycorticosterone, plasma, treatment ratio versus control (day 28): 0.58
Alanine, plasma, treatment ratio versus control (day 28): 0.92*
Arachidonic acid (C20:cis[5,8,11,14]4), plasma, treatment ratio versus control (day 28): 0.97
Coenzyme Q9, plasma, treatment ratio versus control (day 28): 0.73*
Creatinine, plasma, treatment ratio versus control (day 28): 1.65*
DAG (C18:1, C18:2), plasma, treatment ratio versus control (day 28): 0.67
Fructose-6-phosphate, plasma, treatment ratio versus control (day 28): 0.83*
Galactose, lipid fraction, plasma, treatment ratio versus control (day 28): 1.15
Glucosamine, plasma, treatment ratio versus control (day 28): 0.84
Glucose, plasma, treatment ratio versus control (day 28): 0.87*
Glycerol, polar fraction, plasma, treatment ratio versus control (day 28): 0.79*
Heneicosanoic acid (C21:0), plasma, treatment ratio versus control (day 28): 1.08
Lactate, plasma, treatment ratio versus control (day 28): 0.77*
Linolenic acid (C18:cis[9,12,15]3), plasma, treatment ratio versus control (day 28): 0.53*
Lysine, plasma, treatment ratio versus control (day 28): 0.88*
Malate, plasma, treatment ratio versus control (day 28): 0.69*
Oleic acid (C18:cis[9]1), plasma, treatment ratio versus control (day 28): 0.8*
Palmitoleic acid (C16:cis[9]1), plasma, treatment ratio versus control (day 28): 0.88*
Phenylalanine, plasma, treatment ratio versus control (day 28): 0.93*
Phosphate (inorganic and organic phosphates), plasma, treatment ratio versus control (day 28): 1.02
Pyruvate, plasma, treatment ratio versus control (day 28): 0.69*
Spermidine, plasma, treatment ratio versus control (day 28): 0.79*
TAG (C16:0,C16:1), plasma, treatment ratio versus control (day 28): 0.71*
Uracil, plasma, treatment ratio versus control (day 28): 0.77*
myo-Inositol, plasma, treatment ratio versus control (day 28): 0.91*
trans-4-Hydroxyproline, plasma, treatment ratio versus control (day 28): 0.81*
